# Results: patent US11214803B2, “Modulators of YAP1 expression” (Ionis Pharmaceuticals, Inc., priority 2019, dated 2022)
# Strand notation (5' to 3'): a small letter for the sugar, then the base; units joined by * are phosphorothioate-linked, units joined directly phosphodiester-linked; [ ] holds rarer units or linkages, { } end groups; capitals alone tell only the bases. e = 2'-O-(2-methoxyethyl) (MOE); k = constrained ethyl (cEt); [5mC] = 5-methylcytosine; d = 2'-deoxy (DNA); m = 2'-O-methyl
# System: Yap1 mRNA
# Assay: Antisense inhibition of human Yap1 in SNU-449 cells by modified oligonucleotides, single dose (Example 5, RTS36584)
# Assay type: cell-based
# Details: Table 39; SNU-449 cells, 10,000 cells per well, free uptake, 2,000 nM oligonucleotide, approx. 48 hours; RTS36584; normalized to RIBOGREEN; Yap1 mRNA relative to untreated control
# Procedure, shortened: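 Plate SNU-449 cells at 10,000 per well; add 2,000 nM modified oligonucleotide without transfection reagent; after ~48 h isolate RNA, run qRT-PCR with RTS36584, normalise to RIBOGREEN and report % UTC.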
row,Substance,YAP1 (% UTC)
1,1198373 (kA*dA*dA*dT*dT*dG*dT*d[5mC]*dT*d[5mC]*dA*kT*eG*k[5mC]*e[5mC]*kT; antisense) [Compound 1198373],40
2,1198423 (kT*d[5mC]*dT*dT*dA*dT*dA*dT*dG*dG*dT*kT*eT*kT*eG*kT) [Compound 1198423],10
3,1198395 (k[5mC]*dT*dT*dT*dT*dA*d[5mC]*dA*dT*dT*dA*kG*eG*kA*eA*k[5mC]; antisense) [Compound 1198395],35
4,1198378 (kA*dT*dA*dT*dG*dG*dA*dA*dA*dT*dT*kG*eT*k[5mC]*eT*k[5mC]; antisense) [Compound 1198378],39

# Same assay, conditions: Table 40 (separate experiment); SNU-449 cells, 10,000 cells per well, free uptake, 2,000 nM oligonucleotide, approx. 48 hours; RTS36584; normalized to RIBOGREEN; Yap1 mRNA relative to untreated control
row,Substance,YAP1 (% UTC)
1,1198747 (kA*eG*k[5mC]*dA*d[5mC]*dT*dT*dT*dT*dA*d[5mC]*dA*eT*eT*kA*kG; antisense) [Compound 1198747],38
2,1198785 (antisense kT*eT*kT*dA*dT*dG*dT*dA*dA*dT*dA*dT*eT*eG*k[5mC]*kA) [Compound 1198785],86
3,1198797 (antisense kA*eA*kG*dT*dA*dA*dG*dG*dT*dT*dT*d[5mC]*e[5mC]*e[5mC]*kA*kG) [Compound 1198797],31
4,1198426 (kA*dA*d[5mC]*dT*d[5mC]*dT*dT*dA*dT*dA*dT*kG*eG*kT*eT*kT; antisense) [Compound 1198426],111

# Same assay, conditions: Table 41; SNU-449 cells, 10,000 cells per well, free uptake, 2,000 nM modified oligonucleotide, approximately 48 hours; RTS36584; normalized to RIBOGREEN; Yap1 mRNA relative to untreated control cells
row,Substance,YAP1 (% UTC)
1,1198773 (kA*e[5mC]*kT*d[5mC]*dT*dT*dA*dT*dA*dT*dG*dG*eT*eT*kT*kT; antisense) [Compound 1198773],58
2,1198665 (antisense kT*kG*d[5mC]*dT*dT*dT*dG*dG*dA*dA*dG*dA*kT*e[5mC]*kT*eG) [Compound 1198665],38

# Same assay, conditions: Table 42 (separate experiment); SNU-449 cells, 10,000 cells per well, free uptake, 2,000 nM modified oligonucleotide, approximately 48 hours; RTS36584; normalized to RIBOGREEN; Yap1 mRNA relative to untreated control cells
row,Substance,YAP1 (% UTC)
1,1198712 (kA*kG*dA*d[5mC]*dT*dA*dA*dG*dT*dA*dA*dG*kG*eT*kT*eT; antisense) [Compound 1198712],110
2,1198649 (kG*kA*dG*dG*dT*dA*dT*dA*dA*d[5mC]*dT*dG*kG*eG*k[5mC]*eA) [Compound 1198649],27

# Same assay, conditions: Table 43 experiment; SNU-449 cells, 10,000 cells per well, free uptake, 2,000 nM, approximately 48 hours; RTS36584; Yap1 mRNA normalized to RIBOGREEN, relative to untreated control cells
row,Substance,YAP1 (% UTC)
1,1198473 (antisense kT*k[5mC]*dT*dA*dT*dA*dT*dT*dA*dG*dA*eG*kT*eA*kT*eG) [Compound 1198473],66
2,1198257 (kA*dT*dT*dG*d[5mC]*dA*dA*dT*d[5mC]*dT*dG*eT*e[5mC]*eT*kG*kA; antisense) [Compound 1198257],85
3,1198271 (kT*kT*dA*dA*dA*dG*dT*dG*dT*dA*dT*eG*eT*e[5mC]*kA*kG) [Compound 1198271],44
4,1198279 (k[5mC]*kT*dA*dA*dG*dT*dA*dA*dG*dG*dT*eT*eT*e[5mC]*k[5mC]*k[5mC]; antisense) [Compound 1198279],43

# Same assay, conditions: Table 44 experiment; SNU-449 cells, 10,000 cells per well, free uptake, 2,000 nM, approximately 48 hours; RTS36584; Yap1 mRNA normalized to RIBOGREEN, relative to untreated control cells
row,Substance,YAP1 (% UTC)
1,1198503 (k[5mC]*kA*dG*dA*dT*dT*dT*dA*dG*dG*dA*eT*kG*e[5mC]*kA*eT; antisense) [Compound 1198503],31
2,1198489 (antisense kT*kT*dG*dG*dA*dA*dG*dA*dT*d[5mC]*dT*eG*kA*eA*kA*e[5mC]) [Compound 1198489],50
3,1198487 (antisense kT*kT*dA*dA*dG*d[5mC]*dA*d[5mC]*dT*dT*dT*eT*kA*e[5mC]*kA*eT) [Compound 1198487],62

# Same assay, conditions: Table 45; Yap1 mRNA as percent of untreated control, SNU-449 cells, single dose
row,Substance,YAP1 (% UTC)
1,1198927 (kT*kG*d[5mC]*dT*dT*dT*dG*dG*dA*dA*dG*kA*dT*k[5mC]*dT*kG; antisense) [Compound 1198927],50
2,1198935 (kG*kA*dT*dT*dT*dA*dG*dG*dA*dT*dG*k[5mC]*dA*kT*dG*kG; antisense) [Compound 1198935],18
3,1198956 (kT*kA*dT*dG*dT*dA*dA*dT*dA*dT*dT*kG*d[5mC]*kA*dA*kT; antisense) [Compound 1198956],76
4,1198932 (kT*kT*dA*dG*dG*dA*dT*dG*d[5mC]*dA*dT*kG*dG*kT*dT*kT; antisense) [Compound 1198932],35
5,1198946 (kA*kA*d[5mC]*dT*d[5mC]*dT*dT*dA*dT*dA*dT*kG*dG*kT*dT*kT; antisense) [Compound 1198946],72
6,1198930 (kA*kT*dA*dG*dT*dG*d[5mC]*dT*dT*dT*dG*kG*dA*kA*dG*kA; antisense) [Compound 1198930],68

# Same assay, conditions: Table 46; Yap1 mRNA as percent of untreated control, SNU-449 cells, single dose
row,Substance,YAP1 (% UT)
1,1095426 (antisense k[5mC]*kT*dG*dA*dG*dG*dT*dA*dT*dA*dA*k[5mC]*eT*kG*eG*kG) [Compound 1095426],54
2,1198834 (kA*kA*dG*d[5mC]*dA*d[5mC]*dT*dT*dT*dT*dA*k[5mC]*eA*kT*eT*kA; antisense) [Compound 1198834],54
3,1198837 (kT*kT*dG*dG*dA*dA*dG*dA*dT*d[5mC]*dT*kG*eA*kA*eA*k[5mC]; antisense) [Compound 1198837],66
4,1198848 (kA*kT*dT*dT*dA*dG*dG*dA*dT*dG*d[5mC]*kA*eT*kG*eG*kT; antisense) [Compound 1198848],47
5,1198845 (kA*kG*dG*dA*dT*dG*d[5mC]*dA*dT*dG*dG*kT*eT*kT*eT*kT; antisense) [Compound 1198845],43

# Same assay, conditions: Table 48; Yap1 mRNA level relative to untreated control; modified oligonucleotides targeting SEQ ID NO.: 1 and 2
row,Substance,YAP1 (% UT)
1,1197203 (antisense kA*kA*k[5mC]*dT*d[5mC]*dT*dT*dA*dT*dA*dT*dG*dG*kT*kT*kT) [Compound 1197203],68
2,1198314 (kA*kA*kG*d[5mC]*dA*d[5mC]*dT*dT*dT*dT*dA*d[5mC]*kA*eT*kT*eA; antisense) [Compound 1198314],82
3,1198298 (kT*kA*kT*dT*dA*dG*dA*dG*dT*dA*dT*dG*kT*eG*kG*e[5mC]; antisense) [Compound 1198298],23

# Same assay, conditions: Table 49; Yap1 mRNA level relative to untreated control; modified oligonucleotides targeting SEQ ID NO.: 1 and 2
row,Substance,YAP1 (% UT)
1,1198568 (antisense kA*k[5mC]*kT*dT*dT*dT*dA*d[5mC]*dA*dT*dT*dA*kG*kG*kA*eA) [Compound 1198568],31
2,1198569 (antisense CACTTTTACATTAGGA; chemistry not fully specified) [Compound 1198569],14
3,1198351 (kT*kT*kT*dA*dT*dG*dT*dA*dA*dT*dA*dT*kT*eG*k[5mC]*eA; antisense) [Compound 1198351],40

# Same assay, conditions: Table 50; Yap1 mRNA remaining as percent of untreated control (UT), SNU-449 cells, single dose
row,Substance,YAP1 (% UT)
1,1198606 (antisense kT*kG*kT*dA*dA*dT*dA*dT*dT*dG*d[5mC]*dA*kA*kT*k[5mC]*eT) [Compound 1198606],25
2,1197291 (k[5mC]*kT*kT*dT*mU*dA*d[5mC]*dA*dT*dT*dA*dG*dG*kA*kA*k[5mC]; antisense) [Compound 1197291],83
3,1198601 (antisense kA*kT*kT*dG*d[5mC]*dA*dA*dT*d[5mC]*dT*dG*dT*k[5mC]*kT*kG*eA) [Compound 1198601],50
4,1198624 (kA*k[5mC]*kT*dA*dA*dG*dT*dA*dA*dG*dG*dT*kT*kT*k[5mC]*e[5mC]; antisense) [Compound 1198624],20
5,1197285 (kA*kG*kA*dG*mU*dA*dT*dG*dT*dG*dG*d[5mC]*dA*kA*kT*kA; antisense) [Compound 1197285],28

# Same assay, conditions: Table 51; Yap1 mRNA remaining as percent of untreated control (UT), SNU-449 cells, single dose
row,Substance,YAP1 (% UT)
1,1197304 (k[5mC]*kT*k[5mC]*dT*mU*dA*dT*dA*dT*dG*dG*dT*dT*kT*kT*kG; antisense) [Compound 1197304],45
2,1200796 (kT*kT*kA*dG*dA*mG*dT*dA*dT*dG*dT*dG*dG*k[5mC]*kA*kA; antisense) [Compound 1200796],15
3,1197305 (kA*k[5mC]*kT*d[5mC]*mU*dT*dA*dT*dA*dT*dG*dG*dT*kT*kT*kT; antisense) [Compound 1197305],30

# Same assay, conditions: Table 52; Yap1 mRNA, modified oligonucleotides targeting SEQ ID NO: 1 and 2
row,Substance,YAP1 (% UT)
1,1200831 (kT*kT*kT*dA*dG*mG*dA*dT*dG*d[5mC]*dA*dT*dG*kG*kT*kT; antisense) [Compound 1200831],42
2,1200818 (kA*kA*kG*d[5mC]*dA*mC*dT*dT*dT*dT*dA*d[5mC]*dA*kT*kT*kA; antisense) [Compound 1200818],31
3,1200849 (kA*kA*kT*dA*dT*mU*dG*d[5mC]*dA*dA*dT*d[5mC]*dT*kG*kT*k[5mC]; antisense) [Compound 1200849],53

# Same assay, conditions: Yap1 mRNA, percent of untreated control; modified oligonucleotides targeting SEQ ID NO: 1 and 2; Table 47
row,Substance,YAP1 (% UT)
1,1197183 (antisense kA*k[5mC]*kT*dT*dT*dT*dA*d[5mC]*dA*dT*dT*dA*dG*kG*kA*kA) [Compound 1197183],41
2,1009324 (kA*kG*kT*dA*dT*dG*dT*dG*dG*d[5mC]*dA*dA*dT*kA*kA*kT; antisense) [Compound 1009324],27
